Test results published in the supplement of paper PMC10307832.

How the values were obtained:
Experiment in all cases: relative viability (nuclei count vs DMSO), 5 days (fraction); higher = more cells survive
[1] = compound: C=CCNC1=C2C[C@@H](C)C[C@H](OC)[C@H](O)[C@@H](C)/C=C(\C)[C@H](OC(N)=O)[C@@H](OC)/C=C\C=C(/C)C(=O)NC(=CC1=O)C2=O [17-AAG] + CS(=O)(=O)N1CCN(Cc2cc3nc(-c4cccc5[nH]ncc45)nc(N4CCOCC4)c3s2)CC1 [Pictilisib] (partner 1 µM)
Summary of the method: (§1)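 Dosing by pin tool came one day after lung cancer cell lines were seeded in 1536-well plates, using either one drug or a fixed anchor-drug dose plus five library-drug doses (not always all listed) in √10 steps. After 5 days, nuclei were counted on 4× images. Relative viability is treated-well nuclei count divided by vehicle-well nuclei count, and values are medians of duplicate plates.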

[2] = compound: C=CCNC1=C2C[C@@H](C)C[C@H](OC)[C@H](O)[C@@H](C)/C=C(\C)[C@H](OC(N)=O)[C@@H](OC)/C=C\C=C(/C)C(=O)NC(=CC1=O)C2=O [17-AAG] + C[C@]1(O)C[C@@H](c2nc(-c3ccc4ccc(-c5ccccc5)nc4c3)c3c(N)nccn32)C1 [Linsitinib] (partner 1 µM)
Summary of the method: as §1

[3] = compound: C=CCNC1=C2C[C@@H](C)C[C@H](OC)[C@H](O)[C@@H](C)/C=C(\C)[C@H](OC(N)=O)[C@@H](OC)/C=C\C=C(/C)C(=O)NC(=CC1=O)C2=O [17-AAG] + Cc1nc(NC(=O)N2CCC[C@H]2C(N)=O)sc1-c1ccnc(C(C)(C)C(F)(F)F)c1 [Alpelisib] (partner 2 µM)
Summary of the method: as §1

[4] = compound: C=CCNC1=C2C[C@@H](C)C[C@H](OC)[C@H](O)[C@@H](C)/C=C(\C)[C@H](OC(N)=O)[C@@H](OC)/C=C\C=C(/C)C(=O)NC(=CC1=O)C2=O [17-AAG] + Nc1ncn([C@H]2C[C@H](O)[C@@H](CO)O2)c(=O)n1 [Decitabine] (partner 2 µM)
Summary of the method: as §1

Cell Line	relative viability ([1]; first compound 0.00128 µM)	relative viability ([1]; first compound 0.004048 µM)	relative viability ([1]; first compound 0.0128 µM)	relative viability ([1]; first compound 0.04048 µM)	relative viability ([1]; first compound 0.128 µM)	relative viability ([2]; first compound 0.00128 µM)	relative viability ([2]; first compound 0.004048 µM)	relative viability ([2]; first compound 0.0128 µM)	relative viability ([2]; first compound 0.04048 µM)	relative viability ([2]; first compound 0.128 µM)	relative viability ([3]; first compound 0.00128 µM)	relative viability ([3]; first compound 0.004048 µM)	relative viability ([3]; first compound 0.0128 µM)	relative viability ([3]; first compound 0.04048 µM)	relative viability ([3]; first compound 0.128 µM)	relative viability ([4]; first compound 0.00128 µM)	relative viability ([4]; first compound 0.004048 µM)	relative viability ([4]; first compound 0.0128 µM)	relative viability ([4]; first compound 0.04048 µM)	relative viability ([4]; first compound 0.128 µM)
COR-L23	0.703	0.77	0.789	0.38	0.083	0.919	0.952	0.943	0.473	0.138	0.715	0.826	0.941	0.376	0.0924	0.328	0.52	0.432	0.351	0.138
NCI-H727	0.405	0.513	0.217	0.171	0.198	0.312	0.252	0.176	0.179	0.22	0.519	0.63	0.358	0.182	0.192	0.871	0.915	0.875	0.538	0.411
NCI-H1993	0.797	0.806	0.667	0.6	0.638	0.764	0.718	0.711	0.573	0.5	0.722	0.657	0.658	0.528	0.434	0.609	0.606	0.544	0.408	0.348
NCI-H1437	0.534	0.489	0.144	0.0969	0.0847	0.995	0.788	0.787	0.128	0.112	0.959	0.929	0.88	0.107	0.122	0.531	0.636	0.504	0.311	0.241
NCI-H2347	0.671	0.478	0.508	0.717	0.43	0.91	0.84	0.997	0.656	0.37	1.12	0.961	1.1	0.565	0.417	0.659	0.631	0.558	0.453	0.386
201T	0.679	0.667	0.663	0.546	0.424	1.06	1.05	1.01	0.985	0.863	1.07	1.03	0.984	0.943	0.818	0.842	0.838	0.811	0.804	0.71
NCI-H358	0.392	0.219	0.125	0.131	0.126	0.817	0.892	0.148	0.161	0.131	0.838	0.556	0.126	0.134	0.126	0.198	0.141	0.0682	0.0758	0.062
LOU-NH91	0.573	0.515	0.451	0.384	0.332	0.874	0.678	0.587	0.478	0.311	0.66	0.592	0.532	0.446	0.34	0.806	0.724	0.623	0.47	0.393
HOP-62	0.811	0.807	0.748	0.11	0.0928	0.783	0.917	1.08	0.819	0.455	0.907	1.04	1.1	0.939	0.38	0.24	0.238	0.25	0.167	0.172
NCI-H1915	0.848	0.992	0.832	0.207	0.0693	1.05	1.08	1.14	1.07	0.83	1.05	1.06	1.04	1.02	0.458	0.259	0.271	0.263	0.25	0.0807
NCI-H322M	0.553	0.564	0.523	0.259	0.279	1.04	0.938	0.99	0.484	0.334	0.826	0.865	0.796	0.548	0.382	0.811	0.706	0.641	0.475	0.442
NCI-H1651	0.568	0.54	0.363	0.148	0.131	1.09	1.01	0.975	0.227	0.177	0.972	0.895	0.902	0.27	0.157	0.389	0.68	0.481	0.362	0.179
PC-14	0.654	0.219	0.057	0.067	0.0563	1	0.879	0.575	0.169	0.124	0.939	0.726	0.662	0.106	0.0874	0.183	0.199	0.097	0.103	0.0891
NCI-H647	0.454	0.253	0.0973	0.15	0.106	1.16	0.596	0.18	0.118	0.074	1.29	0.605	0.0949	0.107	0.0714	0.365	0.272	0.0949	0.129	0.102
SW 1573	0.549	0.531	0.206	0.19	0.104	0.987	0.901	0.647	0.249	0.128	0.817	0.716	0.648	0.158	0.109	0.336	0.284	0.159	0.113	0.0972
